Results as given in patent EP4778929A1, “NOVEL TYPE I TOPOISOMERASE INHIBITOR, AND PREPARATION METHOD THEREFOR AND USE THEREOF” (priority 2023, dated 2025).
“And” between values parts separate entries of the source, which are not always exact repeats. Equal values may be shown once. Read-outs that look alike come from different tables or passages of the source.

Columns and labels:
HCT116 cells = assay: Inhibition of cell proliferation by CTG (CellTiter-Glo) luminescence assay; type: cell-based; conditions: Homo sapiens, read-out: HCT116, IC50
Outline: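 Nine-point 1:3 dilutions applied to HCT116 cells (2 000/well, McCoy's 5a + 10 % FBS) for 72 h at 37 °C, final DMSO 0.25 %. Viability read by CellTiter-Glo luminescence; % inhibition versus DMSO controls fitted to four-parameter logistic for IC50.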

topoisomerase I (Topo I) = target: T1, topoisomerase I (Topo I) (Homo sapiens, UniProt P11387); assay: Topo I enzyme-inhibitory activity by agarose-gel electrophoresis (plasmid relaxation); type: biochemical
T1 sequence (P11387 1-765): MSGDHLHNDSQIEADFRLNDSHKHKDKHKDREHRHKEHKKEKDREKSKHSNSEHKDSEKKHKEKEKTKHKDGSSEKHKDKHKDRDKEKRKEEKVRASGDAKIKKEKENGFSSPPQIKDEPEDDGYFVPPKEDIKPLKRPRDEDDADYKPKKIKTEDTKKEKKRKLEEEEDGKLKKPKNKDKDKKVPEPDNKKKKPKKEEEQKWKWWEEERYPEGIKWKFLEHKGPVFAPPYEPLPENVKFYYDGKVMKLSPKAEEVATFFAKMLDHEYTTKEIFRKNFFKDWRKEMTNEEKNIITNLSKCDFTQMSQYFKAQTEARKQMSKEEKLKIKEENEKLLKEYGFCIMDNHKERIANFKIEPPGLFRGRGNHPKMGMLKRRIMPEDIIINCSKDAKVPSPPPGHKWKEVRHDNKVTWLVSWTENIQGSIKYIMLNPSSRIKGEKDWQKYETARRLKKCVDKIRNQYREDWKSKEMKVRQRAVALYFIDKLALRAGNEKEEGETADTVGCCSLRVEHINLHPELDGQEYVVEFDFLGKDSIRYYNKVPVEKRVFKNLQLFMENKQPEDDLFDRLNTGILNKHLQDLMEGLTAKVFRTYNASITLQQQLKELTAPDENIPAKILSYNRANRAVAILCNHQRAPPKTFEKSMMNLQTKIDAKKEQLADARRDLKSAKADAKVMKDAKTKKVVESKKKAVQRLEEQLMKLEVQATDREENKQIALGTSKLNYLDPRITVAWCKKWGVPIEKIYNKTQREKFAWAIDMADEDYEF
Text: Test Example 1. Determination of Topo I Enzyme-Inhibitory Activity by Agarose-Gel Electrophoresis
Principle: Type-I topoisomerase (Topo I) relaxes positive and negative supercoils by introducing transient single-strand breaks and forming reversible cleavage complexes (Topo I-DNA covalent complexes). Gel electrophoresis can resolve DNA species of identical molecular weight but different topology: supercoiled plasmid migrates fastest, whereas the nicked, relaxed form moves more slowly. Quantifying the decrease in supercoiled DNA therefore provides a direct measure of Topo I activity.
Experimental Procedure: A 1× reaction buffer was prepared (20 mM Tris-HCl pH 7.5, 200 mM NaCl, 0.25 mM EDTA, 5 % (v/v) glycerol, 0.5 µg pNO1 plasmid substrate). Test compounds (5 % DMSO final) were added to the buffer, followed by Topo I enzyme (0.75 U per reaction). After gentle mixing, reactions were incubated at 37 °C for 30 min. Positive (enzyme + vehicle) and negative (no enzyme) controls were included in parallel. Reactions were terminated by adding STEB buffer and chloroform/iso-amyl alcohol (24:1, v/v), vortexed and centrifuged for 2 min. The aqueous (upper) phase was loaded onto a 1 % (w/v) agarose gel, electrophoresed for 1-2 h, stained with GelRed, and imaged under UV trans-illumination.
Data Analysis: Band intensities of supercoiled DNA were quantified with image-analysis software. Relaxation activity (%) was calculated as (Max-Sample)/ (Max-Min)*100%, where Max = intensity of the no-enzyme negative control, Min = intensity of the vehicle-only positive control, and Sample = intensity of the compound-treated lane. Dose-response data (compound concentration, X; relaxation activity %, Y) were fitted in Excel or GraphPad Prism 5.0 using the four-parameter logistic equation: Y=Bottom + (Top-Bottom)/(1+(IC50/X)[…]) to derive the IC50 value for each compound.
Table 1. Compound-mediated inhibition of topoisomerase I (Topo I) enzymatic activity

[1] = read-out: inhibition of topoisomerase I (Topo I) enzymatic activity, IC50; 0.75 U Topo I, pNO1 plasmid, 37 °C, 30 min; compounds listed by group (Group A / Group B)
[2] = HCT-116, 72 h incubation, CellTiter-Glo
[3] = 0.75 U Topo I, pNO1 plasmid, 37 °C, 30 min; compounds listed by group (Group A / Group B); read-out: inhibition of topoisomerase I (Topo I) enzymatic activity, IC50

Structure (SMILES)	IC50 (HCT116 cells; HCT-116, 72 h)	IC50 (topoisomerase I (Topo I); [1])	IC50 (HCT116 cells; [2])	IC50 (topoisomerase I (Topo I); [3])
CC[C@@]1(O)C(=O)OCc2c1cc1n(c2=O)Cc2c-1c(=O)c1cc(F)c(N)cc1n2C1CCC(C)(C)CC1 [Example 70, (S)-9-amino-4-ethyl-8-fluoro-4-hydroxy-11-(4,4-dimethylcyclohexyl)-1,12-dihydro-14H-pyrano[3,4:6,7]indolizino[2,1-b] quinoline-3,6,14(4H,11H)-trione]	< 20 nM	200 to 500 nM	–	–
CC[C@@]1(O)C(=O)OCc2c1cc1n(c2=O)Cc2c-1c(=O)c1cc(F)ccc1n2-c1cccc(N)c1 [Example 71, (S)-11-(3-aminophenyl)-4-ethyl-8-fluoro-4-hydroxy-1H-pyrano[3,4:6,7]indolizino[2,1-b]quinoline-3,6,14(4H,11H,12H)-trione]	< 20 nM	200 to 500 nM	–	–
CC[C@@]1(O)C(=O)OCc2c1cc1n(c2=O)Cc2c-1c(=O)c1cc(F)ccc1n2-c1ccc(N)cc1 [Example 72, (S)-11-(4-aminophenyl)-4-ethyl-8-fluoro-4-hydroxy-1H-pyrano[3,4:6,7]indolizino[2,1-b]quinoline-3,6,14(4H,11H,12H)-trione]	< 20 nM	200 to 500 nM	–	–
CC[C@@]1(O)C(=O)OCc2c1cc1n(c2=O)Cc2c-1c(=O)c1cc(F)ccc1n2-c1cccc(OC)c1 [Example 73, (S)-4-ethyl-8-fluoro-4-hydroxy-11-(3-methoxyphenyl)-1,12-dihydro-14H-pyrano[3,4:6,7]indolizino[2,1-b]quinoline-3,6,14(4H,11H)-trione]	< 20 nM	200 to 500 nM	–	–
CC[C@@]1(O)C(=O)OCc2c1cc1n(c2=O)Cc2c-1c(=O)c1cc(F)cc(CNC3CC3)c1n2C [Example 88, (S)-10-((cyclopropylamino)methyl)-4-ethyl-8-fluoro-4-hydroxy-11-methyl-1,12-dihydro-14H-pyrano[3,4:6,7]indolizino[2,1-b] quinoline-3,6,14(4H,11H)-trione]	< 20 nM	200 to 500 nM	–	–
CC[C@@]1(O)C(=O)OCc2c1cc1n(c2=O)Cc2c-1c(=O)c1cc(F)cc(CN(C)C3CC3)c1n2C [Example 89, (S)-10-((cyclopropyl(methyl)amino)methyl)-4-ethyl-8-fluoro-4-hydroxy-11-methyl-1,12-dihydro-14H-pyrano[3,4:6,7]indolizino[2,1-b]quinoline-3,6,14(4H,11H)-trione]	< 20 nM	200 to 500 nM	–	–
CC[C@@]1(O)C(=O)OCc2c1cc1n(c2=O)Cc2c-1c(=O)c1cc(F)ccc1n2CCN(C1CC1)C1CC(F)(F)C1 [Example 101, (S)-11-(2-(cyclopropyl(3,3-difluorocyclobutyl)amino)ethyl)-4-ethyl-8-fluoro-4-hydroxy-1,12-dihydro-14H-pyrano[3,4:6,7] indolizino[2,1-b]quinoline-3,6,14(4H,11H)-trione]	< 20 nM	200 to 500 nM and < 200 nM	–	–
CC[C@@]1(O)C(=O)OCc2c1cc1n(c2=O)Cc2c-1c(=O)c1cc(F)ccc1n2CCNC1CCC1 [Example 106]	< 20 nM	200 to 500 nM	–	–
CC[C@@]1(O)C(=O)OCc2c1cc1n(c2=O)Cc2c-1c(=O)c1cc(F)ccc1n2CCN(C1CCC1)C1CCC1 [Example 119]	< 20 nM	200 to 500 nM	–	–
CC[C@@]1(O)C(=O)OCc2c1cc1n(c2=O)Cc2c-1c(=O)c1cc(F)ccc1n2CCN(C1CCCC1)C1CC1 [Example 137]	< 20 nM	200 to 500 nM	–	–
CC[C@@]1(O)C(=O)OCc2c1cc1n(c2=O)Cc2c-1c(=O)c1cc(F)ccc1n2CCNC1CCCC1(C)C (stereo partly drawn) [Example 138]	< 20 nM	200 to 500 nM	–	–
CC[C@@]1(O)C(=O)OCc2c1cc1n(c2=O)Cc2c-1c(=O)c1cc(F)ccc1n2CCN(C)C1CCCC1(C)C (stereo partly drawn) [Example 139]	< 20 nM	200 to 500 nM	–	–
CC[C@@]1(O)C(=O)OCc2c1cc1n(c2=O)Cc2c-1c(=O)c1cc(F)ccc1n2CCN(C1CC1)C1CC1 [Example 140]	< 20 nM	< 200 nM	–	–
CC[C@@]1(O)C(=O)OCc2c1cc1n(c2=O)Cc2c-1c(=O)c1cc(F)ccc1n2CCN(C1CCC1)C1CC1 [Example 141]	< 20 nM	200 to 500 nM	–	–
CC[C@@]1(O)C(=O)OCc2c1cc1n(c2=O)Cc2c-1c(=O)c1cc(F)c(C)cc1n2CCNC1CCC1 [Example 159]	< 20 nM	200 to 500 nM	–	–
CC[C@@]1(O)C(=O)OCc2c1cc1n(c2=O)Cc2c-1c(=O)c1cc(F)c(C)cc1n2CCNC1CC(F)(F)C1 [Example 160]	–	–	< 20 nM	200 to 500 nM
CC[C@@]1(O)C(=O)OCc2c1cc1n(c2=O)Cc2c-1c(=O)c1cc(F)c(C)cc1n2CCNC1CC1 [Example 161]	< 20 nM	200 to 500 nM	–	–
CC[C@@]1(O)C(=O)OCc2c1cc1n(c2=O)Cc2c-1c(=O)c1cc(F)c(C)cc1n2CCNC1CCCC1 [Example 163]	< 20 nM	200 to 500 nM	–	–
CC[C@@]1(O)C(=O)OCc2c1cc1n(c2=O)Cc2c-1c(=O)c1cc(F)c(C)cc1n2CCN(C)C1CC1 [Example 164]	< 20 nM	200 to 500 nM	–	–
CC[C@@]1(O)C(=O)OCc2c1cc1n(c2=O)Cc2c-1c(=O)c1cc(F)c(C)cc1n2CCN(C1CC1)C1CC(F)(F)C1 [Example 165]	< 20 nM	200 to 500 nM	–	–
CC[C@@]1(O)C(=O)OCc2c1cc1n(c2=O)Cc2c-1c(=O)c1cc(F)c(C)cc1n2CCN(C)C1CCCC1 [Example 166]	< 20 nM	200 to 500 nM	–	–
CC[C@@]1(O)C(=O)OCc2c1cc1n(c2=O)Cc2c-1c(=O)c1cc(F)c(C)cc1n2CCN(C1CCCC1)C1CC1 [Example 167]	< 20 nM	200 to 500 nM	–	–
CC[C@@]1(O)C(=O)OCc2c1cc1n(c2=O)Cc2c-1c(=O)c1cc(F)cc(C)c1n2CCNC1CCCC1 [Example 168]	< 20 nM	200 to 500 nM	–	–
CC[C@@]1(O)C(=O)OCc2c1cc1n(c2=O)Cc2c-1c(=O)c1cc(F)cc(C)c1n2CCNC1CC1 [Example 169]	< 20 nM	200 to 500 nM	–	–
CC[C@@]1(O)C(=O)OCc2c1cc1n(c2=O)Cc2c-1c(=O)c1cc(F)cc(C)c1n2CCN(C1CCCC1)C1CC1 [Example 171]	< 20 nM	200 to 500 nM	–	–
CC[C@@]1(O)C(=O)OCc2c1cc1n(c2=O)Cc2c-1c(=O)c1cc(F)cc(C)c1n2CCN(C)C1CCCC1 [Example 172]	< 20 nM	200 to 500 nM	–	–
CC[C@@]1(O)C(=O)OCc2c1cc1n(c2=O)Cc2c-1c(=O)c1cc(F)ccc1n2CCN1CC2(CC2)C1 [Example 182, (S)-11-(2-(5-azaspiro[2.3]hexan-5-yl)ethyl)-4-ethyl-8-fluoro-4-hydroxy-1,12-dihydro-14H-pyrano[3',4':6,7]indolizino[2,1-b]quinoline-3,6,14(4H,11H)-trione]	–	–	< 20 nM	200 to 500 nM
CC[C@@]1(O)C(=O)OCc2c1cc1n(c2=O)Cc2c-1c(=O)c1cc(F)ccc1n2CCN1CCCC1(C)C [Example 184]	< 20 nM	< 200 nM	–	–
CC[C@@]1(O)C(=O)OCc2c1cc1n(c2=O)Cc2c-1c(=O)c1cc(F)ccc1n2CCN1CCC(C)(C)CC1 [Example 185]	< 20 nM	200 to 500 nM	–	–
CC[C@@]1(O)C(=O)OCc2c1cc1n(c2=O)Cc2c-1c(=O)c1cc(F)ccc1n2CCN1CC(F)(F)C1 [Example 186]	–	–	< 20 nM	200 to 500 nM
